# Experiments:
# [1] = molecular target: T1, human blood platelet PDE5 (Homo sapiens, UniProt O76074); assay: PDE5 enzyme inhibition activity test (scintillation proximity); type: biochemical
# T1 construct: obtained by suitably treating various tissues and separating the enzyme with FPLC; from tissue; host or cells: human blood platelets
# Summary of the method: (§1)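 Enzymes were used immediately after isolation: PDE6 from bovine retina, PDE5 from human platelets. Each was incubated 30 min at 30 °C with varying inhibitor concentrations and a small amount of substrate in Tris/HCl pH 7.5 buffer with MgCl2 and EGTA. Reactions were quenched with zinc-sulphate yttrium silicate SPA beads and product counted by scintillation.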
# PDE6 in bovine retina = molecular target: T2, PDE6 in bovine retina (Bos taurus, UniProt P11541+P23439); assay: PDE6 enzyme inhibition activity test (scintillation proximity); type: biochemical
# T2 construct: obtained by suitably treating various tissues and separating the enzyme with FPLC; from tissue; host or cells: bovine retina
# T2 sequence (P11541 2-856 limits assumed): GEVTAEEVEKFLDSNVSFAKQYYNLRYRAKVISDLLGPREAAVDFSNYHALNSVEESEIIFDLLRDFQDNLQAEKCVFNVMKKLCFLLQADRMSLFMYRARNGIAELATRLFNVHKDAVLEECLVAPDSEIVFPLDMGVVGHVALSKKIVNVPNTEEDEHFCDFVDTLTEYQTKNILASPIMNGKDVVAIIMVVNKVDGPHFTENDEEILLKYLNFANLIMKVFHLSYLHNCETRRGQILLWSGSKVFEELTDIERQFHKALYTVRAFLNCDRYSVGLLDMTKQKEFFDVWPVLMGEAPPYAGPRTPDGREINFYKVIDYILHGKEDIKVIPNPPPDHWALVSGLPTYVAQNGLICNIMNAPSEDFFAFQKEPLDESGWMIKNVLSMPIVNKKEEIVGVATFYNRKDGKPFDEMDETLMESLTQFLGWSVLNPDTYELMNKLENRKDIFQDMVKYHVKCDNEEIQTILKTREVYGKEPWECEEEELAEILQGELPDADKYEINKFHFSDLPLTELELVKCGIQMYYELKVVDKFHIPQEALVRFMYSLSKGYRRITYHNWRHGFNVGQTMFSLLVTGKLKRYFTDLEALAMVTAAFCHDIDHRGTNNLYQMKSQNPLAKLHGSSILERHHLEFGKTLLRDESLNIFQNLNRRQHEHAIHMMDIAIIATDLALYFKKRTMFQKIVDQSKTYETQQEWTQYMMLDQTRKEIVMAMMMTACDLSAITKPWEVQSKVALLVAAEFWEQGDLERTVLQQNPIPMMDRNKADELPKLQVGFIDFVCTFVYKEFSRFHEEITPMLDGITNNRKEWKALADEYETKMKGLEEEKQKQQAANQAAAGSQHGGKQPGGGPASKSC
# T2 sequence (P23439 2-850 limits assumed): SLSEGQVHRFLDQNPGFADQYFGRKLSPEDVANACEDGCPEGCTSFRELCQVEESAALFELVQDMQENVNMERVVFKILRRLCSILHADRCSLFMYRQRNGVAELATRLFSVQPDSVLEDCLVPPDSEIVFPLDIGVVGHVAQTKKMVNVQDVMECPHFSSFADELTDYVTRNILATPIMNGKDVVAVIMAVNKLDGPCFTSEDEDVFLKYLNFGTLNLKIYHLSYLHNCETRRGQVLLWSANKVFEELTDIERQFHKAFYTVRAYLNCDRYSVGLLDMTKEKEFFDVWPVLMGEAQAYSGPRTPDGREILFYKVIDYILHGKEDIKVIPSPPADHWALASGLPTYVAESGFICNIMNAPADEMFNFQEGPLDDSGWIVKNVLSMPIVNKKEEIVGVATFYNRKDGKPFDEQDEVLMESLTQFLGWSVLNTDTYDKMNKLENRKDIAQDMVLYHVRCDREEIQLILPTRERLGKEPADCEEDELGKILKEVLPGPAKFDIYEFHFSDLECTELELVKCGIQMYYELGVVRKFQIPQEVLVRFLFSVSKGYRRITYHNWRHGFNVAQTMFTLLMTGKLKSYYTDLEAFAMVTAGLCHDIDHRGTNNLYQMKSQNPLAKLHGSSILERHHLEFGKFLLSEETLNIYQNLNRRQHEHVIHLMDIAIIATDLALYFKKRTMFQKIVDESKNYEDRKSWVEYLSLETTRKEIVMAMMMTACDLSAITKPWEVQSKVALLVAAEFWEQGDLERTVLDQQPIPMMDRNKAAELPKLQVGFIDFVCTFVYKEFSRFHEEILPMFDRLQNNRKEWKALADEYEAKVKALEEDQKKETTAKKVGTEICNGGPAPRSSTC
# Summary of the method: as §1
smiles,measurement,setting,value
"CCCOc1ccc(C(=O)NCC(=O)OCC)cc1-c1nc(CC)c(CC)c(=O)[nH]1 [Example 89, Ethyl 2-(3-(4,5-diethyl-1,6-dihydro-6-oxopyrimidin-2-yl)-4-n-propoxybenzamido)acetate]",IC50,[1]; PDE5 table,1.98 nM
same,IC50,[1]; as repeated in the PDE6 table,1.98 nM
same,IC50,"PDE6 in bovine retina; PDE6 separated from bovine retina, read-out: PDE6 IC50",11.7 nM
same,PDE6 IC50/PDE5 IC50,"PDE6 in bovine retina; selectivity, ratio of IC50 PDE6/IC50 PDE5",5.88
